Earlier results as cited in patent US6384084B2, “Histochrome and its therapeutic use in ophthalmology” (Tikhookeansky Institut Bioorganicheskoi Khimii …, priority 1998, dated 2002).

Key:
[1] = patients, 0.5% solution
[2] = rabbits, 0.5% solution, subconjunctival and parabulbar

| SMILES | Resorption of intraocular hemorrhages (injection of a 1% solution) | Adverse effect in the course of therapy (monitoring of blood coagulation required) | Pain at the time of administration [1] | Effect on epithelization of the cornea and inflammatory processes in eye burns [2] |
| --- | --- | --- | --- | --- |
| CCc1nc(C)ccc1O [Emoxipin] | facilitates the resorption of intraocular hemorrhages | liable to cause reccurrent hemorrhages |  |  |
| CCc1c(O)c(O)c2c(c1O)C(=O)C(O)=C(O)C2=O [echinochrome, 2,3,5,6,8-pentahydroxy-7-ethyl-1,4-naphthoquinone] |  |  | patients experienced acute pain at the time of administration | able to facilitate epithelization of the cornea at early stages of the treatment of eye burns and to alleviate inflammatory processes in the eye |
